The structures appear in SMILES notation.

This series can be described thus: Human HepG2 cell viability assay in 384 well format. Format: toxicity, cell-based. On the set-up: dose 125 nL, time 70.5 hour; cytotoxicity at 70.5 h: concentration not given beside the values. Particulars: HepG2 cells, read-out: Inhibition.
As to `Cc1ncc(CNC(=O)CCc2ccccc2F)c(C2CCCN2C)n1` (centres undefined), the cytotoxicity at 70.5 h was -0.236%.
The result for `O=C(Cc1ccsc1)N1CCCCC1c1ccn2ccnc2n1` (centres undefined) reads 8.15%; that for `O=C(Cc1ccccc1F)N1CCCCC1c1ccn2ccnc2n1` (centres undefined), -6.86%; that for `COc1cccc(CC(=O)NCc2cnc(C)nc2C2CCCN2C)c1` (centres undefined), -6.33%.
Under `COc1cc(CN2CC[C@H](NC(C)=O)[C@@H](O)CC2)ccc1F` stands 12.1%; under `CC(=O)N1CCN([C@@H]2CCC[C@@H](NC(=O)c3cccnc3)[C@H]2O)CC1`, -11.5%.
Under `CC(=O)N1CCN([C@@H]2CC[C@@H](NC(=O)c3cc(C)cs3)[C@H]2O)CC1` stands -4.78%.
In the case of `CC(=O)N1CCC(Cc2cccc(-c3c(C)noc3C)n2)C1` (centres undefined), the cytotoxicity at 70.5 h is -7.61%.
`CCC(=O)N1CCC(c2cncc(Oc3cccnc3)n2)CC1`: the cytotoxicity at 70.5 h is -5.07%.
As to `CCC(=O)N1CCC1c1cc(NC2CCCC2)nc(C)n1` (centres undefined), the cytotoxicity at 70.5 h is -2.68%.
The result for `Cc1nc(CCC(=O)NCC(N)=O)cc(C2CCNCC2)n1` reads -6.67%; that for `CC1(C(=O)N2CCOCC2)CN(Cc2ncc[nH]2)CCO1` (centres undefined), 11.7%; that for `COCCC(=O)N1CCCC1c1nc(O)cc(-c2ccccn2)n1` (centres undefined), -5.06%.
Consider `O=C(CN1CCCC1)N1CCCC1c1nc(O)cc(-c2ccccn2)n1` (centres undefined), for which the cytotoxicity at 70.5 h is 11.1%.
Consider `O=C(c1cccnc1)N1CCCC1c1nc(O)cc(-c2ccccn2)n1` (centres undefined), for which the cytotoxicity at 70.5 h was -6.66%.
Under `Oc1nc(N2CCCC2)nc2c1CCN(Cc1cccnc1)CC2` stands -5.83%; under `CN(Cc1ccc(F)cc1)CC1(O)CCN(C(=O)c2ccncc2)C1` (centres undefined), -5.43%.
Turning to `Cc1noc(C)c1-c1cc(CC2CCN(C(=O)c3cc[nH]n3)C2)ncn1` (centres undefined), the cytotoxicity at 70.5 h was -0.894%.
Regarding `CC(=O)Nc1nc(C2CCN(C(=O)c3cncs3)CC2)cs1`, the cytotoxicity at 70.5 h came to 11.2%.
The result for `COCC(=O)N1CCC(Cc2nccnc2-c2c(C)n[nH]c2C)C1` (centres undefined) reads 12.4%; that for `CN1CCC(c2cccc(Cc3ccccc3)n2)CC1`, 3.18%.
Under `CN1CCCC1c1cccc(Cc2ccc(F)cc2)n1` (centres undefined) stands 17%; under `CNC(=O)CCc1cc(C)nc(C2CCCCN2)n1` (centres undefined), -4.98%.
The result for `O=C(c1ccc(F)cc1)N1CCOC(c2nc(-c3ncccn3)no2)C1` (centres undefined) reads -5.53%; that for `Nc1nc(C2CCN(C(=O)c3cnccn3)CC2)cs1`, 15.4%; that for `Cc1cccc(Nc2nccnc2C2CCCN2CC(N)=O)n1` (centres undefined), -2.88%.
On to `NC(=O)C1(c2cnccn2)CCCN1Cc1ccncc1` (centres undefined), for which the cytotoxicity at 70.5 h was -0.768%.
The result for `Cc1cc(C)nc(Nc2cccc(C3CCCN(S(C)(=O)=O)C3)n2)n1` (centres undefined) reads 46.8%; that for `Cc1cc(-c2ccc(C(=O)O)cc2)nc(C2CCN(C(C)C)CC2)n1`, 0.538%; that for `O=S(=O)(N1CCOCC1)N1CCC(Oc2cnccn2)CC1`, 0.596%.
The result for `CN1CCCCC[C@@H]2[C@@H]1[C@H](c1ccccc1)CN2C(=O)c1ccccn1` reads -1.6%; that for `Cn1ccc(C(=O)N2CCOC(c3ccc(C(N)=O)cn3)C2)n1` (centres undefined), 0.762%.
In the case of `CN1CC(c2cc(O)nc(NCc3ccccc3Cl)n2)CC1=O` (centres undefined), the cytotoxicity at 70.5 h was -2.82%.
For the molecule `CC(=O)N1CCCC1c1nc(C)cc(-c2ccc(F)cc2)n1` (centres undefined), the cytotoxicity at 70.5 h was -1.51%.
Under `Cn1nc(C2CN(C(=O)c3ccncc3)C2)c2nccnc21` stands 13.9%; under `CC(=O)N1CCC(c2nccnc2-c2ccc(C(=O)O)cc2)CC1`, 20%.
As to `COc1ccc(CN(C)[C@@H]2CN(C(=O)c3ccccc3)C[C@H]2O)cc1`, the cytotoxicity at 70.5 h is -2.29%.
In the case of `CCCN(C(=O)c1ccncc1)c1nc2c(s1)CCc1c-2cnn1C`, the cytotoxicity at 70.5 h was 18.2%.
Turning to `COCCN(C(=O)c1cnccn1)c1nc2c(s1)CCc1c-2cnn1C`, the cytotoxicity at 70.5 h stood at 7%.
For the molecule `CCCn1cc(CN2CCCC2c2nccc(CN(C)C)n2)cn1` (centres undefined), the cytotoxicity at 70.5 h turned out to be 21.3%.
For the molecule `Cc1nc2c(c(=O)[nH]1)CCN(C(=O)c1cccc3nccnc13)C2`, the cytotoxicity at 70.5 h came out at 0.0996%.
Take `O=C(c1cccnc1)N1CCc2c(nc(N3CCCC3)[nH]c2=O)C1`: the cytotoxicity at 70.5 h was -4.95%.
The result for `O=C(c1ccco1)N1CCC(n2nc(-c3cccs3)ccc2=O)CC1` reads -5.47%; that for `O=C(c1ccco1)N1CCC(n2nc(-c3ccco3)ccc2=O)CC1`, -3.82%; that for `O=C(C1CCCCC1)N1CCC(n2nc(-c3ccco3)ccc2=O)CC1`, -0.841%.
The result for `Cc1nc(O)c2nnn(C[C@H]3CCCN3C(=O)c3ccccc3F)c2n1` reads -0.74%.
`O=C(O)CCc1cccc(C2CCCN2Cc2cccc(Cl)c2)n1` (centres undefined): the cytotoxicity at 70.5 h is -0.284%.
The result for `CN1CCC(c2cccc(CCC(=O)NCC(N)=O)n2)CC1` reads -5.22%; that for `Cn1cc(C(=O)N2CCCC(c3ccncc3)C2)cn1` (centres undefined), -7.32%; that for `CN1CCCC[C@@H]2[C@H]1[C@@H](c1ccccc1)CCN2C(=O)c1ccccn1`, -9.11%.
The result for `CCCC(=O)NCCc1cc(N2CCN(C(C)=O)CC2)nc(C2CC2)n1` reads -6.31%.
Turning to `CNC(=O)C1(c2cnccn2)CCCN1C(=O)c1ccccc1C` (centres undefined), the cytotoxicity at 70.5 h was determined as 15.3%.
On to `Cc1nnsc1C(=O)N1CC[C@H](c2ccccc2)[C@@H]2[C@H]1CCCCN2C`, for which the cytotoxicity at 70.5 h was -3.09%.
The result for `Cc1cc(C(=O)N2CCCC2c2nc(C)cc(O)n2)on1` (centres undefined) reads -8.09%.
Under `CCc1c(C)nc2cc(C3CCN(Cc4cccc(F)c4)C3)nn2c1O` (centres undefined) stands -7.92%; under `CCc1c(C)nc2cc(C3CCN(Cc4cccnc4)C3)nn2c1O` (centres undefined), -5.28%; under `Cc1n[nH]cc1CNCC1(c2ccccc2Cl)CCOCC1`, -4.88%.
Under `CCCN(CC)Cn1ncc2cn(-c3ccccc3)nc2c1=O` stands -2.92%; under `NC(=O)CC1CCN(S(=O)(=O)c2cnn(-c3ccccc3)c2)CC1`, -5.73%.
As to `NC(=O)C1CCN(S(=O)(=O)c2cnn(-c3ccccc3)c2)C1` (centres undefined), the cytotoxicity at 70.5 h is -3.49%.
Take `CCN(Cc1ccc(C#N)cc1F)C(=O)CN(C)CC(N)=O`: the cytotoxicity at 70.5 h is -4.58%.
The result for `CC(c1nc(C2CC2)no1)N1CCN(CCS(C)(=O)=O)CC1` (centres undefined) reads -4.19%.
The result for `COc1ccc(Cl)cc1NCC(=O)N(Cc1ccncc1)C1CC1` reads 15.5%; that for `CC(C)(C)CCS(=O)(=O)NCCc1csc(N2CCCC2)n1`, -2.83%.
Under `CS(=O)(=O)CCNC(=O)NCCc1cc2ccccc2o1` stands -4.01%; under `OC1(CNc2ccc(Br)cn2)CCOCC1`, -2.5%.
Regarding `CNS(=O)(=O)CC1CCCN1c1ccc(Cl)cn1` (centres undefined), the cytotoxicity at 70.5 h was -1.45%.
The result for `Cc1csc(CN(C)C2CCN(c3sccc3C#N)C2=O)n1` (centres undefined) reads 16%; that for `CCCc1noc(C(C)N2CCN(CCn3ccccc3=O)CC2)n1` (centres undefined), -2.24%.
On to `CCS(=O)(=O)NCCNC(C)(C)c1nc(C)cs1`, for which the cytotoxicity at 70.5 h is -2.97%.
Consider `CCCN(C(=O)CN1CCN(CCO)CC1)C1=CCCCC1`, for which the cytotoxicity at 70.5 h is -0.879%.
The result for `CCN(C(=O)CN1CCN(CC(C)O)CC1)C1=CCCCC1` (centres undefined) reads -3.37%; that for `COc1c(C2CCCN2c2ncnc3sccc23)c(C)nn1C` (centres undefined), -2.24%.
Under `COc1c(C2CCCN2c2ncnc3c2cnn3C)c(C)nn1C` (centres undefined) stands -5.32%; under `CC(C)c1cc(C(=O)N2CCc3ccccc3C2C(=O)O)nn1C` (centres undefined), -1.42%.
In the case of `CCC(=O)NCC(=O)N(C)C(c1ccc(Cl)cc1)c1cccnc1` (centres undefined), the cytotoxicity at 70.5 h is -1.51%.
`CN(Cc1ccco1)C(=O)CN1C(=O)c2ccccc2C1=O`: the cytotoxicity at 70.5 h was -2.38%.
Regarding `O=C1NCCCCC1Sc1ccc(F)c(F)c1` (centres undefined), the cytotoxicity at 70.5 h is -13.1%.
With `Cn1nc2c(c1NC(=O)c1cccs1)CCC2`, the cytotoxicity at 70.5 h was -12.2%.
The result for `CN(Cc1cccs1)C(=O)CN1C(=O)c2cc(Cl)c(Cl)cc2C1=O` reads -13.1%.
Under `Cc1nc(NC2CCN(C(=O)C3CC3)CC2)c2cnn(C)c2n1` stands -11.5%.
Under `COCCNC(=O)c1ccc(NCc2c(C)noc2C)cc1Cl` stands -6.64%; under `NC(=O)CCN(CC(=O)NCc1cccs1)c1ccc(F)cc1`, -6.81%.
In the case of `CC(NC(=O)CN(C)C(C)C)c1ccc(Oc2cccnc2)c(F)c1` (centres undefined), the cytotoxicity at 70.5 h was -4.91%.
The result for `CSCC(=O)N1CCOC(c2nc(C)n[nH]2)C1` (centres undefined) reads -12.3%.
Under `CS(=O)(=O)CCCN1CCN(C(C#N)c2ccccc2)CC1` (centres undefined) stands 0.393%.
The result for `CCS(=O)(=O)NCCN1CCN(C(C#N)c2ccccc2)CC1` (centres undefined) reads -9.85%; that for `CC(C)C1CN(C(=O)c2cc(F)cc3[nH]cnc23)CCS1` (centres undefined), -2.35%; that for `CC1(C)CCN1C(=O)c1cc(F)cc2[nH]cnc12`, -9.74%.
Regarding `CNC(=O)c1ccc(CN2CCN(C3=NCC(C)(C)S3)CC2)cc1`, the cytotoxicity at 70.5 h was 17.7%.
Turning to `COC(=O)c1ccc(NCc2csc(C)n2)cc1Cl`, the cytotoxicity at 70.5 h is -6.69%.
Under `CN(Cc1ccsc1)C(=O)CNC(=O)N1CCc2ccccc2C1` stands -7.67%; under `Cc1noc2nc(C3CCN(CC4CCCCC4)CC3)cc(C(F)F)c12`, 1.17%.
The result for `c1nc(CCC2CCCCN2)cc(N2CCCC2)n1` (centres undefined) reads 1.23%; that for `c1nc(CCC2CCCN2)cc(N2CCCCCC2)n1` (centres undefined), 0.142%; that for `c1cc(CNCc2ccc(Cn3cncn3)cc2)c2c(c1)OCCO2`, -11.4%.
`c1cc(CNCc2cccc3c2OCCCO3)cc(Cn2cncn2)c1`: the cytotoxicity at 70.5 h is -8.37%.
Under `COc1ncc(CN2C[C@@H]3CC[C@@](O)(c4ccc(C)cn4)[C@@H]3C2)cn1` stands 2.96%.
As to `c1cc2nccc(CC3CCCN(Cc4c[nH]cn4)CC3)c2cn1` (centres undefined), the cytotoxicity at 70.5 h was -0.459%.

The values above are taken from ChEMBL document CHEMBL3507680, “University of Dundee, Gates Library screen for HepG2 cell viability”.
